Assay [1] concerns E. coli BW25113 ΔmlaD. Nature of the assay: MIC, serial broth dilution, mlaD knockout strain vs wild type. The format is cell-based, Escherichia coli. On the procedure:
What could be the mechanism behind the antagonistic action of this pathway on membrane- versus intracellular-targeting AMPs? Since MlaD is part of a protein complex, it may lead to a loss-of-function effect upon overexpression[41],[42]. To test this, we asked whether overexpression and deletion of mlaD cause similar changes in susceptibility to a representative set of membrane- and intracellular-targeting AMPs.
Minimum inhibitory concentrations (MIC) were determined with a standard serial broth dilution technique with a minor modification. Specifically, instead of a two-fold dilution series, smaller AMP concentration steps were used (typically 1.2-fold) for two reasons. […] Second, gene overexpressions caused typically only small changes in the MICs of AMPs and therefore higher resolution was required. The protocol was as follows. From a stock solution of an AMP, 12-steps serial dilution was prepared in fresh MS medium in 96-well microtiter plates. Each AMP was represented in 11 different concentrations (3 wells per AMP concentration per strain). Three wells contained only medium to check the growth in the absence of AMP. After overnight growth in MS medium supplemented with chloramphenicol, bacterial strains were diluted 20-fold into fresh MS medium and grown until the cell density reached OD600 ~1. Cells were induced by 100 µM of IPTG and incubated for 1 h at 30 °C with continuous shaking at 300 rpm. Following incubation, approximately half-million cells were inoculated into the wells of the 96-well microtiter plate with a 96‐pin replicator. We used three independent replicates for each strain and the corresponding control. Two rows in the 96-well plate contained only MS medium in order to obtain the background OD value of the medium. Plates were incubated at 30 °C with continuous shaking at 300 rpm. After 20–24 h of incubation, OD600 values were measured in a microplate reader (Biotek Synergy 2).
A mlaD knockout strain of E. coli BW25113 carrying a kanamycin resistance cassette in the position of the gene was selected from the KEIO collection. The resistance marker was removed using plasmid-borne (pFT-A) expression of FLP recombinase leading to excision of the kanamycin resistance cassette. Cassette excision was verified by a polymerase chain reaction using the primers mlaD_del_ver_Fw (5′- […]) and mlaD_del_ver_Rev (5′- […]).
Supplementary Figure 13. […] The bacterial susceptibility of the mutant to AMPs was tested by MIC determination. Growth is shown relative to growth in the absence of the corresponding AMP. The blue line represents the mlaD knockout strain and the orange line represents the control strain (wild-type E. coli BW25113). Error bars indicate the standard errors based on three biological replicates. Source data are provided in the Source Data file.
(Dilution methods test growth across graded concentrations, often in twofold steps.)

Assay [2] has as its system bacterial membrane. As to conditions: literature mining; ref superscript numbers in the cell, listed in Supplementary Data 7 sheet References; cited from earlier work. From the text: Supplement 41467_2019_13618_MOESM10_ESM.xlsx, sheet "AMP details" | column: Pore formation
Assay [3] has as its system E. coli K12 BW25113 carrying the pooled ASKA overexpression plasmid library (~4400 ORFs). Nature of the assay: Chemical-genetic profiling: pooled competitive growth of the ASKA gene-overexpression library with and without AMP, deep sequencing readout. The format is cell-based, Escherichia coli. From the text: We generated chemical-genetic interaction profiles for a diverse set of AMPs (Table 1) by screening them against a comprehensive library of gene overexpressions in E. coli[21]. Increasing gene dosage is a widely applied approach to reveal the targets of small-molecule antibiotics[22],[23]. It also informs on the ‘latent resistome’, that is, the collection of genes where a change from native expression level enhances resistance to a particular drug[24]. We applied a sensitive competition assay by monitoring growth of a pooled plasmid library, overexpressing all the E. coli ORFs (Fig. 1a), as we reported earlier. Specifically, E. coli cells carrying the pooled plasmid collection were grown in the presence or absence of one of the 15 AMPs tested, at a sub-inhibitory concentration that increased the doubling time of the whole population by 2-fold. Following 12 generations of growth, the plasmid pool was isolated from each selection and the relative abundance of each plasmid was determined by a deep sequencing readout (see Methods).
We carried out chemical-genetic profiling to determine the impact of the overexpression of each E. coli ORF on bacterial susceptibility to each of the 15 different AMPs. To this end, we used the complete set of E. coli K-12 Open Reading Frame Archive (ASKA) plasmid library (GFP minus) where each E. coli ORF is cloned into a high copy number expression plasmid (pCA24N-ORFGFP(-)). Prior to screening, the ASKA library was grown in the original host strain E. coli K-12 AG1 in 96-well plates (growth conditions: 37 °C, 280 rpm, LB medium). An equal aliquot of each member of the ASKA library (each well of the 96-well plates) was pooled together and the plasmid DNA (pCA24N-ORF-GFP(-)) was isolated and transformed into E. coli K12 BW25113 strain[51]. To obtain a negative control strain not having any overexpressed gene, the plasmid without a cloned ORF (pCA24N-noORF) was also transformed into the same E. coli strain. Then, on the pooled collection, we applied a previously reported competitive growth assay. Specifically, the pooled overexpression library and the control strain were grown in parallel in MS medium supplemented with 20 µg per ml chloramphenicol and the overexpression was induced by 100 µM isopropyl-ß-D-thiogalactopyranoside (IPTG). After 1 h induction, ~5 × 10^5 bacterial cells from the library were inoculated into each well of a 96-well microtiter plate containing a concentration gradient of an AMP in the MS medium supplemented with 20 µg per ml chloramphenicol and 100 µM IPTG. At the same time, both the library and the control strain with the empty plasmid were grown in the absence of any AMPs. We took special care to grow both of these samples in the exact same conditions as the samples in the presence of AMPs. Bacterial growth was monitored in a microplate reader (Biotek Synergy 2) for 24 h. At the end of the exponential growth phase, we selected those wells in which the doubling time of the cell population was increased by 2-fold. Then, from these wells, cells were split into four equal proportion and each was transferred into 20 mL of MS medium supplemented with the corresponding AMP in four different concentrations in the range that slowed down growth by two-fold in the microtitre plate. […] The rationale for this 2-step process was to maintain competition in exponential phase for 12 generations of growth, efficiently control the growth rate in a reproducible manner and obtain the plasmid pool with standard DNA isolation protocol (innuPREP plasmid mini Kit, Analytik Jena AG) in a yield that is enough for the downstream analysis. The cultures were vigorously shaken along the entire protocol to make sure that the cultures are completely homogeneous and therefore biasing interactions between clones (such as trans-resistance) was minimized. […]

The test system of assay [4] is E. coli gene overexpression. As to conditions: cited from earlier work. From the text:
Supplement 41467_2019_13618_MOESM1_ESM.docx, table 1: Supplementary Table 1. Collected examples of E. coli gene overexpression from the literature as a confirmation of our chemical-genetic screen results. | column: Overexpression phenotype

Setting [5] is: mlaD deletion strain relative to control (E. coli BW25113), 3 replicates each, from optical density values of serial dilution plates, AMP in µg ml-1.
Setting [6] is: mlaD deletion strain vs control E. coli BW25113, average of 3 replicates.
The mark [7] stands for this setting: gene marA overexpressed, ref 3 (Warner & Levy 2010).
Setting [8] is: gene ompT, whether the literature phenotype was captured by the overexpression screen.
[9] abbreviates: gene ompT overexpressed, ref 4 (Stumpe et al. 1998).
[10] abbreviates: gene ptrB, whether the literature phenotype was captured by the overexpression screen (9 out of 13 captured).
[11] abbreviates: gene ptrB overexpressed, ref 2 (Mattiuzzo et al. 2014).

Read-outs that look alike come from different tables or passages of the source.

In the case of “GIGKFLKKAKKFGKAFVKILKK [PEX, Pexiganan, synthetic Magainin derivative; disrupts cell membrane; cluster C2]”, in assay [1] (setting [5]), the “Average relative change in MIC” value was 1.58. Moreover, in assay [2], the “Pore formation (whether AMP makes pores in the bacterial membrane)” value (shortened to “Pore formation”) was “Yes13”.
For the sequence “GLRKRLRKFRNKIKEKLKKIGQKIQGFVPKLAPRTDY [CAP18, antimicrobial peptide, source rabbit; disrupts cell membrane; cluster C3]”, in assay [3] (gene waaY, whether the literature phenotype was captured by the overexpression screen), the “Overexpression phenotype, Chemical-genetic profile” value is listed as “Confirmed”. The “Average relative change in MIC” value in assay [1] (setting [5]) is 2.25. For the same sequence, the “Overexpression phenotype, Literature” value in assay [4] (gene waaY overexpressed, ref 10 (Lázár et al. 2018)) is given as “Sensitivity^10”. Besides, the “Pore formation” value in assay [2] is recorded as “Yes35”.
On to “ILPWKWPWWPWRR [IND, Indolicidin, antimicrobial peptide from bovine neutrophils; cluster C3]”, for which the “Average relative change in MIC” value in assay [1] (setting [6]) is given as 0.71. Also, the “Pore formation” value in assay [2] was “Yes39”.
Turning to “KTKKKFLKKT [PXB, Polymyxin B, from Bacillus polymyxa, purchased from Sigma-Aldrich; disrupts cell membrane; cluster C1]”, the “Overexpression phenotype, Chemical-genetic profile” value in assay [3] (gene eptA, whether the literature phenotype was captured by the overexpression screen) is “Confirmed”; in assay [3] (gene marA, whether the literature phenotype was captured by the overexpression screen), “Confirmed”. Moreover, the “Overexpression phenotype, Literature” value in assay [4] (gene arnT overexpressed, ref 5 (Trent et al. 2001)) is listed as “Resistance^5”; in assay [4] (gene eptA overexpressed, ref 7 (Olaitan et al. 2014)) it was “Resistance^7”; in assay [4] (setting [7]), “Resistance^3”; in assay [4] (gene pmrD overexpressed, ref 8 (Roland et al. 1994)) it was “Resistance^8”. Moreover, the “Pore formation” value in assay [2] is listed as “Yes2”.
For “LLGDFFRKSKEKIGKEFKRIVQRIKDFLRNLVPRTES [LL37, LL-37 human cathelicidin, human host-defense peptide; disrupts cell membrane; cluster C2]”, the “Overexpression phenotype, Chemical-genetic profile” value in assay [3] (setting [8]) is listed as “Confirmed”. Moreover, the “Average relative change in MIC” value in assay [1] (setting [5]) worked out at 2.25. For the same sequence, the “Overexpression phenotype, Literature” value is given as “Resistance^3” in assay [4] (setting [7]) and “Resistance^4” in assay [4] (setting [9]). Moreover, the “Pore formation” value in assay [2] was “Yes22”.
For the sequence “RFRPPIRRPPIRPPFYPPFRPPIRPPIFPPIRPPFRPPLGPFP [BAC5, Bactenecin 5, antimicrobial peptide from bovine neutrophils; cluster C4]”, in assay [3] (setting [10]), the “Overexpression phenotype, Chemical-genetic profile” value was “Confirmed”. Further, the Chemical-genetic score in assay [3] (overexpressed gene mlaD, read numbers in presence vs absence of AMP, sub-inhibitory dose doubling the doubling time, 12 generations, average of biological replicates) is -2.101 log2 fold change. Besides, the “Average relative change in MIC” value in assay [1] (setting [6]) is on record as 0.67. Moreover, the “Overexpression phenotype, Literature” value in assay [4] (setting [11]) was “Resistance^2”.
Turning to “RRRPRPPYLPRPRPPPFFPPRLPPRIPPGFPPRFPPRFP [PR39, PR-39, cathelicidin, source pig; cluster C4]”, the “Effect of folA overexpression on susceptibility” value in assay [3] (gene folA (dihydrofolate reductase) overexpressed) is “resistance”. For the same sequence, the “Overexpression phenotype, Chemical-genetic profile” value in assay [3] (setting [10]) is recorded as “Confirmed”; in assay [3] (gene sbmA, whether the literature phenotype was captured by the overexpression screen), “Confirmed”. In addition, the “Overexpression phenotype, Literature” value in assay [4] (setting [11]) is recorded as “Resistance^2”; in assay [4] (gene sbmA overexpressed, ref 9 (Pranting et al. 2008)), “Sensitivity^9”. Further, in assay [2], the “Pore formation” value was “No9”.
In the case of “RWCFRVCYRGICYRKCR [TPII, Tachyplesin II, antimicrobial peptide from Japanese horseshoe crab; disrupts cell membrane; cluster C1]”, in assay [1] (setting [5]), the “Average relative change in MIC” value is recorded as 1.35. Moreover, in assay [2], the “Pore formation” value is “Yes1”.
For “TSSPPAAVVVRRRRRRRRRRRRRRRRRRR [PROA, Protamine, source herring, purchased from Sigma-Aldrich; cluster C3]”, the “Overexpression phenotype, Chemical-genetic profile” value in assay [3] (gene nlpE, whether the literature phenotype was captured by the overexpression screen) is “Confirmed”; in assay [3] (setting [8]) it was “Confirmed”. Also, the “Average relative change in MIC” value in assay [1] (setting [6]) turned out to be 0.43. Besides, the “Overexpression phenotype, Literature” value is listed as “Resistance^6” in assay [4] (gene nlpE overexpressed, ref 6 (Griffin 2013)) and “Resistance^4” in assay [4] (setting [9]). The “Pore formation” value in assay [2] is recorded as “No43”.

The record behind these values is paper PMC6915728 (Nature Communications, 2019).
